Assay results from US10188747B2, “Methods and compositions for the treatment of cancer” (THE GENERAL HOSPITAL CORPORATION, priority 2014, dated 2019).

Assays:
[1] = system: HKCs; test: Treatment of differentiating HKCs with ER ligands, RT-qPCR and immunoblot analysis; type: cell-based, human; conditions: differentiating HKCs (100% confluence), 72 hours; 10 nM E2, 100 nM DPN, 100 nM PPT, 10 nM fulvestrant vs DMSO
Excerpt: (§1) FIG. 10B depicts graphs of expression of CYP1B1 determined by RT-qPCR in lung and keratinocyte-derived SCC cell lines in parallel with HBECs and HKCs, respectively. […] Data are presented as mean fold change of fluorescence intensity±SD (*P<0.05). FIG. 10D depicts graphs of indicated SCC cells plated in duplicate on Matrigel precoated chambers with spheroid number quantification 10 days later by ImageJ™ analysis of whole-cell images. Data are duplicates±SD (*P<0.05).
(§2) Besides estrogen, other agonists have been developed with elevated specificity for either the ERα or ERß receptors (43).
(§3) Conditions for RT-qPCR, immunoblotting, immunofluorescence and ChIP assays were as previously reported (9, 42). For immunoblotting, unless otherwise indicated, cells were lysed in SDS sample buffer (50 mM Tris-HCl pH 6.8, 2% SDS, 10% glycerol, 0.2 unit nuclease) and protein separation was done in 15-well 4-12% NuPAGE Bis-Tris polyacrylamide gels (Invitrogen). Equal loading controls were done by re-probing the same immunoblots unless otherwise indicated. All assays were done at least twice, with two HKC strains or epidermal samples of independent origin.

[2] = system: SCC13 (skin), SW900 (lung), and SCCO13 (oral) SCC cells; test: DAPT treatment of SCC cells infected with ERβ-expressing viral vectors, RT-qPCR; type: cell-based, human; conditions: DAPT 10 μM, added 24 hours after infection, analysis 72 hours later; involucrin and keratin 10
Protocol: FIG. 9A depicts results of SCC cell lines infected with ERβ-expressing viral vectors versus controls as in FIGS. 8A-8E were analyzed for expression of the indicated proteins by immunoblotting. FIG. 9B depicts graphs of SCC13 (skin), SW900 (lung), and SCCO13 (oral) SCC cells infected with ERβ-expressing and control viral vectors were treated 24 hours after infection with DAPT (10 μM) or DMSO control followed, 72 hours later, by RT-qPCR analysis of involucrin and keratin 10 differentiation marker expression. *P<0.05.
To directly assess the impact of increased ERß signaling in SCC outgrowth, a panel of skin, oral and lung SCC cell lines were infected with ERß expressing versus control viruses. […] To test the in vivo impact of increased ERß expression, representative cell lines from skin (SCC13), head/neck (SCCO13) and lung SCCs (H2170) were assessed by intra-dermal tumorigenicity assays in immune compromised mice (42). Cells infected with the ERß expressing lentivirus formed tumors of similar size as the controls, but enhanced Notch1 expression and differentiation (FIGS. 9C-9D).
Conditions for RT-qPCR, immunoblotting, immunofluorescence and ChIP assays were as previously reported (9, 42). […]

[3] = system: HKCs; test: DAPT treatment of HKCs infected with Dlx5- and ERβ-expressing retroviruses, RT-qPCR; type: cell-based, human; conditions: DAPT 10 μM, added 24 hours after infection, analysis 48 hours later
Protocol: HKCs under differentiating conditions (100% confluence for 3 days: 100% cf+3D) were analyzed in parallel as point of reference. […] FIG. 5B depicts graphs of HKCs with or without infection with EGR3-, DLX5-, and ERβ-expressing retroviruses as in the previous panel were treated with DAPT (10 μM) or DMSO control at 24 hours after infection followed, 48 hours later, by RT-qPCR analysis of involucrin gene expression, with 36β4 for normalization. As an alternative, HKCs stably infected with a shRNA lentivirus against NOTCH1 or empty vector control were superinfected with the EGR3, DLX5, and ERβ expressing retroviruses, followed 72 hours later by RT-qPCR analysis of the same genes. FIG. 5C depicts graphs of HKCs with or without infection with EGR3-, DLX5-, and ERβ-expressing retroviruses as in FIG. 5A were analyzed, 72 hours after infection, by RT-qPCR of the indicated genes. *P<0.001.
as §3, with “All assays were done at least twice, with two HKC strains or epidermal samples of independent origin.” left out

[4] = system: SCC cells; test: Alamar blue cell density assays of SCC cells; type: cell-based, human; conditions: Alamar blue density assay, vs DMSO, refreshed every other day
Excerpt: as §1
Clonogenicity and Alamar Blue assays were as reported (60). For spheroid assays, 8-well chamber slides were coated with matrigel (BDbiosciences, CA; 50 μl per well) and incubated at 37° C. for 20 minutes to allow matrigel to polymerize. SCC cells were brought into suspension in normal culture medium plus 1% matrigel (7000 cells/ml) and added in triplicates to the pre-coated chamber slides (300 μl of cell mixture per well). Medium was refreshed every other day. For organotypic cultures, HKCs were infected with shRNA expressing lentiviruses followed, 48 hours later, by selection for puromycin ([…]) resistance. Selected keratinocyte cultures were reseeded onto collagen gels with embedded J2-3T3 fibroblasts and cultured at the air-liquid interface as previously described (61). […]

[5] = system: SCC cell lines; test: Treatment of a panel of SCC cell lines with DPN, Notch1 and differentiation marker expression; type: cell-based, human
Excerpt: as §1, §2, §3

[6] = system: skin, oral, and lung SCC cells; test: Spheroid formation assays of SCC cells in Matrigel; type: cell-based, human; conditions: spheroid number 10 days later, vs DMSO
Excerpt: as §1
In vitro and animal model assays are provided herein which allow the assessment of a given dose of an agonist as described herein. By way of non-limiting example, the effects of a dose of an agonist can be assessed by spheroid assay. A non-limiting example of a protocol for such an assay is as follows: 8-well chamber slides are coated with matrigel (BDbiosciences, CA; 50 μl per well) and incubated at 37° C. for 20 minutes to allow matrigel to polymerize. SCC cells are brought into suspension in normal culture medium plus 1% matrigel (7000 cells/ml) and added in triplicates to the pre-coated chamber slides (300 μl of cell mixture per well). Medium is refreshed every other day. An agonist is added to the medium and cell growth and proliferation measured over time, e.g. by microscopy.
Clonogenicity and Alamar Blue assays were as reported (60). […]

[7] = system: SCCO13 cells; test: Intradermal tumorigenicity assay, ERß agonist study; type: in vivo, NOD/SCID mice
Protocol: SCC013 cells were injected intradermally in the left supra-scapular region of NOD/SCID mice (1×10^6 cells per injection). […] Animals were sacrificed 10 days later. Tumor weight and volume were measured, followed by determination of Ki67-labeling index by immunofluorescence analysis of histological section. *P<0.05.
Lenti-virally-infected SCC13, SCCO13 cells and retro-virally infected H2170 cells were suspended in matrigel followed by intra-dermal injection (1.0×10^6 cells in 150 μl per injection) into the back skin of 6 weeks old NOD/SCID mice (Taconic Farms Inc. Germantown, N.Y.) as described (9, 42). To minimize the individual animal variations, cells infected with control and ERß expressing viruses were injected in parallel in the right and left flank of the same mice. Mice were sacrificed for tissue analysis 3 weeks (SCC13 and SCCO13) or 1 week (H2170) after injection. For ERß agonist studies, SCCO13 cells were injected intra-dermally into NOD/SCID mice as described above.

[8] = SCCO13 tumors, 20 mg/kg daily, data not shown

**Q.** For `C[C@]12CC[C@@H]3c4ccc(O)cc4CC[C@H]3[C@@H]1CC[C@@H]2O` [17β-estradiol], which Notch1 expression [1] is on record?
**A.** induction

**Q.** What about the differentiation marker expression [1] of the same compound?
**A.** induction

**Q.** Which “induction of differentiation marker expression by increased ERß expression” value [2] does the source give for `C[C@H](NC(=O)Cc1cc(F)cc(F)c1)C(=O)N[C@H](C(=O)OC(C)(C)C)c1ccccc1` [DAPT] here?
**A.** significantly counteracted

**Q.** And the “induction of Hey1 and involucrin by enhanced expression of Dlx5 and ERβ” value [3]?
**A.** prevented to a large extent

**Q.** How did the Notch1 expression [1] turn out when `N#CC(Cc1ccc(O)cc1)c1ccc(O)cc1` (centres unmarked) [DPN, 2,3-bis(4-Hydroxyphenyl)-propionitrile] was run?
**A.** induction

**Q.** And the differentiation marker expression [1]?
**A.** induction

**Q.** And the “proliferation of SCC cell lines” value [4]?
**A.** significantly suppressed

**Q.** And the Notch1 expression [5]?
**A.** induction

**Q.** What about the differentiation marker expression [5] of the same compound?
**A.** induction

**Q.** What about the “sphere forming capability of SCC cell lines” value [6] of the same compound?
**A.** significantly suppressed

**Q.** What about the tumor size ([7]; SCCO13 cells intradermally, 20 mg/kg intraperitoneally daily for 10 days, vs DMSO vehicle) of the same compound?
**A.** significantly smaller size

**Q.** And the “Notch1 expression in tumors” value [7, 8]?
**A.** increased

**Q.** And the “differentiation marker expression in tumors” value [7, 8]?
**A.** increased

**Q.** Which results are given for `C[C@]12CC[C@@H]3c4ccc(O)cc4C[C@@H](CCCCCCCCC[S+]([O-])CCCC(F)(F)C(F)(F)F)[C@H]3[C@@H]1CC[C@@H]2O` (some centres unmarked) [Fulvestrant]?
**A.** Notch1 expression [1]: suppressed; differentiation marker expression [1]: suppressed

**Q.** Which Notch1 expression [1] does the source give for `CCCc1c(-c2ccc(O)cc2)nn(-c2ccc(O)cc2)c1-c1ccc(O)cc1` [PPT, 1,3,5-Tris(4-hydroxyphenyl)-4-propyl-1H-pyrazole] here?
**A.** Little or no induction

**Q.** And the differentiation marker expression [1]?
**A.** Little or no induction
